Consider one molecule from ChEMBL document CHEMBL4145555, “Synthetic Approaches to New Drugs Approved During 2016” (J Med Chem, 2018).

The term half-life denotes the time needed for the level to fall by half in the phase considered. Read a low half-life as rapid decline.

The nature of this series: Half life in human plasma at 20 mg/day, po. Format: ADME, organism-based.

Regarding `Cl.Clc1ccc(CCCOCCCN2CCCCC2)cc1` [PITOLISANT HYDROCHLORIDE], the half-life lay within 10 to 12 h.
